Each block holds one molecule with its values, some of them ahead of it.
Experiments:
[1] = test system: T1, UGT enzymes of human liver microsomes; assay: Kinetic and Ki studies of inhibitors of 7-HFC glucuronidation in human liver microsomes; type: biochemical; settings: 7-HFC 20-500 μM
T1 construct: percentage of control metabolism, 7-HFC glucuronidation; percentage of control metabolism, 7-HFC glucuronidation

[2] = test system: UGT enzymes of human liver microsomes; assay: Inhibition of raloxifene glucuronidation (G1, G2) in human liver microsomes; type: biochemical; settings: raloxifene 50 μM; for % of control metabolism (SD, n = 3), raloxifene glucuronide G1 / % of control metabolism (SD, n = 3), raloxifene glucuronide G2: human liver microsomes 250 μg/ml, 15 min
Excerpt: Compounds were eluted using a binary solvent gradient system. […] Solvent B was methanol. […] Detection was at 280 nm.

[3] = test system: UGT enzymes of pooled human jejunum microsomes; assay: Inhibition of zidovudine glucuronidation in pooled human jejunum microsomes; type: biochemical; settings: inhibitor 200 μM
Experimental: Increasing the microsomal protein concentration to 1 mg/ml and extending the incubation time to 60 min provided meaningful metabolite levels for inhibition studies.

[4] = test system: T2, UGT enzymes of human liver microsomes; assay: Inhibition of 2ME2 glucuronidation (MG1, MG2) in human liver microsomes; type: biochemical; settings: liver 062101, 2ME2 50 μM
T2 construct: other: liver 062101
Excerpt: (§1) Compounds were eluted using a binary solvent gradient system where solvent A was dilute phosphoric acid (pH 3) and solvent B was 80:20 acetonitrile-methanol. […] Detection was at 280 nm.

[5] = test system: UGT enzymes of pooled human jejunum microsomes; assay: Inhibition of 2ME2 glucuronidation (MG1) in pooled human jejunum microsomes; type: biochemical; settings: jejunum HJ61, 2ME2 50 μM
Excerpt: as §1

UGT1A1 [6] = molecular target: T3, UGT1A1 (Homo sapiens, UniProt P22309); assay: in vitro
T3 sequence (P22309 26-533): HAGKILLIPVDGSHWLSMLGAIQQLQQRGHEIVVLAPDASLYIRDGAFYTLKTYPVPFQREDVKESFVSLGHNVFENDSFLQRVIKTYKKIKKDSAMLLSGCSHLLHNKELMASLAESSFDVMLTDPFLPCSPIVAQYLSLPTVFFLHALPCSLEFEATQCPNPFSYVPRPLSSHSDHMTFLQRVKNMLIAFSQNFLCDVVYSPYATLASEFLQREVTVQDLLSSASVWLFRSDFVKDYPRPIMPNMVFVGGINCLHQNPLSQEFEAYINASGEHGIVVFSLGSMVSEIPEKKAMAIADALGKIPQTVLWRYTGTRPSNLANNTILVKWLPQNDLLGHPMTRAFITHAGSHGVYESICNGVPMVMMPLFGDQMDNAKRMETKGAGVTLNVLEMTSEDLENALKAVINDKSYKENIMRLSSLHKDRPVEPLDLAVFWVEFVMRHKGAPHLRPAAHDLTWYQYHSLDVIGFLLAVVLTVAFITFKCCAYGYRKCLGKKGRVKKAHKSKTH
Experimental: (§2) Compounds were eluted using a binary solvent gradient system. Solvent A was water brought to pH 8 with NH4OH. Solvent B was methanol. Solvent flow rate was 1 ml/min and the column temperature was maintained at 50° C. Detection was at 280 nm. […] The system was then returned to the initial conditions and equilibrated for 3 min.

UGT1A3 = molecular target: T4, UGT1A3 (Homo sapiens, UniProt P35503); assay: in vitro
T4 sequence (P35503 29-534): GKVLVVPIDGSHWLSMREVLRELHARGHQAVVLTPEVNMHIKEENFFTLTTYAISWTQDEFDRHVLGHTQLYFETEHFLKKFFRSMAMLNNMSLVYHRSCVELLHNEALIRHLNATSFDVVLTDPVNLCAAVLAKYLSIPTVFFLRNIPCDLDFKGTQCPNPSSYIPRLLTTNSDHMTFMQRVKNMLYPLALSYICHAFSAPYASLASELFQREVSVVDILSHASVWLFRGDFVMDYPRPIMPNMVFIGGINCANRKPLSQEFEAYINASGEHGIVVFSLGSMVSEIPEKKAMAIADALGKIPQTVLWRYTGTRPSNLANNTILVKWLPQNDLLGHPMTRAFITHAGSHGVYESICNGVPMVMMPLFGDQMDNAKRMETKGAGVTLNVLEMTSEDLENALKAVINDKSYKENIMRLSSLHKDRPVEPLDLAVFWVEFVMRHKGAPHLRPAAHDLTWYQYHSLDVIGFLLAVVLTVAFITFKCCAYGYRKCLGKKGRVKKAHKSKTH
Experimental: as §2

UGT1A9 = molecular target: T5, UGT1A9 (Homo sapiens, UniProt O60656); assay: in vitro; settings: pH 7.5, % of control metabolism
T5 sequence (O60656 26-530): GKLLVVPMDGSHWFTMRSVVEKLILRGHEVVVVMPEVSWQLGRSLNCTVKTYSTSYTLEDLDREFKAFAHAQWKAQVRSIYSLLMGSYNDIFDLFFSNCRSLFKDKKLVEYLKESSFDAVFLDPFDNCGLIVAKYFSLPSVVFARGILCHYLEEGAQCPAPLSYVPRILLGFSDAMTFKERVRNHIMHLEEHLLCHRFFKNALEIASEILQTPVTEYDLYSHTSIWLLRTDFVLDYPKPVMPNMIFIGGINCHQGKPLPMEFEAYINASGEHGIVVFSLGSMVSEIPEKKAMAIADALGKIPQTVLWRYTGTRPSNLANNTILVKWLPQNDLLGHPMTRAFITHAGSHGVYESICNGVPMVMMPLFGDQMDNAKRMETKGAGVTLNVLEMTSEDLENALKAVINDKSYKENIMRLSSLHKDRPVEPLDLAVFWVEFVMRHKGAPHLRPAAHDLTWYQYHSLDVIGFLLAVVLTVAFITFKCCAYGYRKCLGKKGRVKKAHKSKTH
Experimental: as §2

UGT1A10 [7] = molecular target: T6, UGT1A10 (Homo sapiens, UniProt Q9HAW8); assay: in vitro; settings: pH 7.5, % of control metabolism
T6 sequence (Q9HAW8 26-530): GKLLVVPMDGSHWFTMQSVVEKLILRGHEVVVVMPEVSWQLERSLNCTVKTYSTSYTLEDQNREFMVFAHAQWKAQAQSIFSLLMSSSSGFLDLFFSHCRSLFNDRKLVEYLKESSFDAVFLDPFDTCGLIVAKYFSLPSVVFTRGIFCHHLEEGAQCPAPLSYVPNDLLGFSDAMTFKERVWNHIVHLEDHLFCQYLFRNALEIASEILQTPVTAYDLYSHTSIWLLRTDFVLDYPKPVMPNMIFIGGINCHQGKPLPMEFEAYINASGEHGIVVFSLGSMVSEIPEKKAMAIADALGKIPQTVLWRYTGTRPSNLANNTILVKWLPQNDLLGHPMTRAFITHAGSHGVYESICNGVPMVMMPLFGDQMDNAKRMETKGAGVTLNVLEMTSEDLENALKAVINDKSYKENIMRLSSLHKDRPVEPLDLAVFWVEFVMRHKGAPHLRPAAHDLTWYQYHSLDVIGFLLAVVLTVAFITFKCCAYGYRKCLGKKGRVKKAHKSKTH
Experimental: as §2

UGT1A1 [8] = molecular target: T3, UGT1A1; assay: Inhibition of raloxifene glucuronidation by recombinant UGT1A1 Supersomes; settings: UGT1A1
Experimental: as §2

UGT1A10 [9] = molecular target: T6, UGT1A10; assay: Inhibition of raloxifene glucuronidation by recombinant UGT1A10 Bacculosomes
Experimental: as §2

[10] = test system: T1, UGT enzymes of human liver microsomes; assay: Inhibition of 7-HFC glucuronidation in human liver microsomes; type: biochemical; settings: inhibitor 500 μM; 7-HFC 50 μM, human liver microsomes 100 μg/ml, 15 min
[11] = cited from earlier work
[12] = pH 7.5, % of control metabolism, raloxifene G1
[13] = pH 7.5, % of control metabolism, raloxifene G2

Vmax of 7-HFC glucuronidation (fit of the experiment with this inhibitor) [1]: 64 ± 4 nmol/min/mg
Km ([1]; read-out: Km of 7-HFC glucuronidation (fit of the experiment with this inhibitor)): 87 ± 7 µM
% of control metabolism (SD, n = 3), raloxifene glucuronide G1 ([2]; inhibitor 50 μM): 65 (1) %
% of control metabolism (SD, n = 3), raloxifene glucuronide G1 ([2]; inhibitor 100 μM): 50 (3) %
% of control metabolism (SD, n = 3), raloxifene glucuronide G1 ([2]; inhibitor 500 μM): 6 (1) %
% of control metabolism (SD, n = 3), raloxifene glucuronide G2 ([2]; inhibitor 50 μM): 67 (1) %
% of control metabolism (SD, n = 3), raloxifene glucuronide G2 ([2]; inhibitor 100 μM): 53 (3) %
% of control metabolism (SD, n = 3), raloxifene glucuronide G2 ([2]; inhibitor 500 μM): 6 (1) %
% of control metabolism, raloxifene G1 ([2]; inhibitor 50 μM): 65 (1) %
% of control metabolism, raloxifene G2 ([2]; inhibitor 50 μM): 67 (1) %
% of control metabolism, raloxifene G1 ([2]; inhibitor 100 μM): 50 (3) %
% of control metabolism, raloxifene G2 ([2]; inhibitor 100 μM): 53 (3) %
residual metabolism (percentage of control), zidovudine [3]: 18 (2) %
residual metabolism (% of control), 2ME2 MG1 ([4]; inhibitor 50 μM): 70 (1) %
residual metabolism (% of control), 2ME2 MG2 ([4]; inhibitor 50 μM): 60 (1) %
residual metabolism (% of control), 2ME2 MG1 ([4]; inhibitor 100 μM): 54 (1) %
residual metabolism (% of control), 2ME2 MG2 ([4]; inhibitor 100 μM): 44 (3) %
residual metabolism (% of control), 2ME2 MG1 ([5]; inhibitor 50 μM): 100 (3) %
residual metabolism (% of control), 2ME2 MG1 ([5]; inhibitor 100 μM): 97 (4) %
activity at 15 min, 50 µM (UGT1A1 [6]; [12]): 66%
activity at 15 min, 50 µM (UGT1A1 [6]; [13]): 73%
activity at 15 min, 50 µM (UGT1A1 [6]; pH 7.5, Inhibition of raloxifene glucuronidation, G1, UGT1A1): 66%
activity at 15 min, 50 µM (UGT1A1 [6]; pH 7.5, Inhibition of raloxifene glucuronidation, G2, UGT1A1): 73%
activity at 15 min, 50 µM (UGT1A3; [12]): 74%
activity at 15 min, 50 µM (UGT1A3; [13]): 75%
activity at 15 min, 50 µM (UGT1A3; pH 7.5, Inhibition of raloxifene glucuronidation, G1, UGT1A3): 74%
activity at 15 min, 50 µM (UGT1A3; pH 7.5, Inhibition of raloxifene glucuronidation, G2, UGT1A3): 75%
activity at 15 min, 50 µM (UGT1A9; raloxifene G1): 74%
activity at 15 min, 50 µM (UGT1A9; raloxifene G2): 77%
activity at 15 min, 50 µM (UGT1A10 [7]; raloxifene G1): 97%
activity at 15 min, 50 µM (UGT1A10 [7]; raloxifene G2): 93%
inhibition of raloxifene glucuronidation, in words (UGT1A1 [8]): poor inhibitors
inhibition of raloxifene glucuronidation, in words (UGT1A10 [9]): poor inhibitors
Compound: O=C(O)Cc1ccccc1Nc1c(Cl)cccc1Cl [Diclofenac, reference compound]

% of control metabolism (SD, n = 3), 7-HFC glucuronidation [10]: 91 (1) %
% of control metabolism (SD, n = 3), raloxifene glucuronide G1 ([2]; inhibitor 500 μM): 70 (4) %
% of control metabolism (SD, n = 3), raloxifene glucuronide G2 ([2]; inhibitor 500 μM): 70 (1) %
Compound: CCCN(CCC)S(=O)(=O)c1ccc(C(=O)O)cc1 [Probenecid, reference compound]
increase in zidovudine levels on co-administration ([11]; AIDS patients and healthy volunteers): 2 fold
reduction in diflunisal metabolism to acyl- and phenol-glucuronides ([11]; coadministration with diflunisal): 50%

— US20030215462A1, “Use of UGT inhibitors to increase bioavailability” (priority 2001, published 2003)
